Counter-ions that a name gives are not always drawn.
tested on: native tau aggregates; experiment: TAU radioligand in vitro displacement assay ([3H]T808, autoradiography on human AD brain sections); type: binding; conditions: compound 10 nM, radioligand [3H]T808 10 nM
Method in brief: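 Displacement of 10 nM [3H]T808 from 10 μm human AD brain cryosections by test compounds at various concentrations, 30 min at room temperature in 50 mM Tris pH 7.4, then cold washes. Autoradiography after 5-day exposure; specific binding = ROI signal minus white-matter signal, expressed as % displacement.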

| Compound | % displacement of [3H]T808 (10 nM) at 10 nM [%] |
| --- | --- |
| CNc1ccn2cc(-c3cccs3)nc2c1 [Example 102, N-(2-Thiophen-2-yl-imidazo[1,2-a]pyridin-7-yl)-methyl-amine] | 50 |
| CNc1ccn2cc(-c3ccc(N4CCOCC4)cc3)nc2c1 [Example 103, Methyl-[2-(4-morpholin-4-yl-phenyl)-imidazo[1,2-a]pyridin-7-yl]-amine] | 47 |
| CNc1ccn2cc(-c3nccs3)nc2c1 [Example 104, Methyl-(2-thiazol-2-yl-imidazo[1,2-a]pyridin-7-yl)-amine] | 10 |
| CN(C)c1ccn2cc(-c3ccc(COCCF)cc3)nc2c1 [Example 105, 2-[4-(2-Fluoroethoxymethyl)phenyl]-N,N-dimethyl-imidazo[1,2-a]pyridin-7-amine] | 10 |
| FCCOc1ccc(-c2cn3ccc(N4CCC4)cc3n2)cc1 [Example 106, 7-(Azetidin-1-yl)-2-[4-(2-fluoroethoxy)phenyl]imidazo[1,2-a]pyridine] | 36 |
| FCOc1cccc(-c2cn3ccc(N4CCC4)cc3n2)c1 [Example 107, 7-(Azetidin-1-yl)-2-[3-(fluoromethoxy)phenyl]imidazo[1,2-a]pyridine] | 48 |
| CNc1ccn2cc(-c3ccc(C)c(OC)c3)nc2c1 [Example 108, 2-(3-methoxy-4-methylphenyl)-N-methylimidazo[1,2-a]pyridin-7-amine] | 26 |
| CNc1ccn2cc(-c3ccc(OCCF)cc3)nc2c1 [Example 109, 2-[4-(2-Fluoroethoxy)phenyl]-N-methylimidazo[1,2-a]pyridin-7-amine] | 40 |
| CNc1ccn2cc(-c3ccc(N(C)Cc4ccccc4)cc3)nc2c1 [Example 110, 2-(4-(benzyl(methyl)amino)phenyl)-N-methylimidazo[1,2-a]pyridin-7-amine] | 14 |
| CNc1ccn2cc(-c3sccc3Br)nc2c1 [Example 111, N-[2-(3-Bromo-thiophen-2-yl)-imidazo[1,2-a]pyridin-7-yl]-methyl-amine] | 17 |
| CNc1ccn2cc(-c3sccc3Cl)nc2c1 [Example 112, N-[2-(3-Chloro-thiophen-2-yl)-imidazo[1,2-a]pyridin-7-yl]-methyl-amine] | 6 |
| CNc1ccn2cc(-c3ccc(OC(F)F)cc3)nc2c1 [Example 113, N-[2-(4-Difluoromethoxy-phenyl)-imidazo[1,2-a]pyridin-7-yl]-methyl-amine] | 48 |
| CNc1ccn2cc(-c3ccc(Br)cc3)nc2c1 [Example 114, N-[2-(4-Bromo-phenyl)-imidazo[1,2-a]pyridin-7-yl]-methyl-amine] | 33 |
| CNc1ccn2cc(-c3ccc(C)o3)nc2c1 [Example 115, Methyl-[2-(5-methyl-furan-2-yl)-imidazo[1,2-a]pyridin-7-yl]-amine] | 58 |
| CNc1ccn2cc(-c3cc4ccccc4o3)nc2c1 [Example 116, N-[2-(Benzofuran-2-yl)-imidazo[1,2-a]pyridin-7-yl]-methyl-amine] | 47 |
| CNc1ccn2cc(-c3cc(C)nn3C)nc2c1 [Example 117, N-[2-(2,5-Dimethyl-2H-pyrazol-3-yl)-imidazo[1,2-a]pyridin-7-yl]-methyl-amine] | 18 |
| CNc1ccn2cc(-c3ccc(N4CCCCC4)cc3)nc2c1 [Example 118, Methyl-[2-(4-piperidin-1-yl-phenyl)-imidazo[1,2-a]pyridin-7-yl]-amine] | 20 |
| CNc1ccn2cc(-c3ccc4c(c3)NC(=O)CO4)nc2c1 [Example 119, 6-(7-Methylamino-imidazo[1,2-a]pyridin-2-yl)-4H-benzo[1,4]oxazin-3-one] | 46 |
| CNc1ccn2cc(-c3ccccc3O)nc2c1 [Example 120, 2-(7-Methylamino-imidazo[1,2-a]pyridin-2-yl)-phenol] | 20 |
| CNc1ccn2cc(-c3nc4ccccc4n3C)nc2c1 [Example 121, Methyl-[2-(1-methyl-1H-benzoimidazol-2-yl)-imidazo[1,2-a]pyridin-7-yl]-amine] | 19 |
| CNc1ccn2cc(-c3cccc(C(=O)OC)c3)nc2c1 [Example 122, Methyl 3-[7-(methylamino)imidazo[1,2-a]pyridin-2-yl]benzoate] | 20 |
| CNc1ccn2cc(-c3cccc(CO)c3)nc2c1 [Example 123, [3-[7-(Methylamino)imidazo[1,2-a]pyridin-2-yl]phenyl]methanol] | 23 |

| Compound | % displacement of [3H]T808 (10 nM) at 10 nM [%] |
| --- | --- |
| FCCOc1ccc(-c2cn3ccc(NC4CC4)cc3n2)cc1 [Example 124, N-Cyclopropyl-2-[4-(2-fluoroethoxy)phenyl]imidazo[1,2-a]pyridin-7-amine] | 39 |
| FCCCOc1ccc(-c2cn3ccc(N4CCC4)cc3n2)cc1 [Example 125, 7-(Azetidin-1-yl)-2-[4-(3-fluoropropoxy)phenyl]imidazo[1,2-a]pyridine] | 32 |
| CNc1ccn2cc(-c3cccnc3)nc2c1 [Example 126, Methyl-(2-pyridin-3-yl-imidazo[1,2-a]pyridin-7-yl)-amine] | 12 |
| CNc1ccn2cc(-c3ccc(Cl)s3)nc2c1 [Example 127, N-[2-(5-Chloro-thiophen-2-yl)-imidazo[1,2-a]pyridin-7-yl]-methyl-amine] | 26 |
| CNc1ccn2cc(-c3cc(C)ccc3O)nc2c1 [Example 128, 4-Methyl-2-(7-methylamino-imidazo[1,2-a]pyridin-2-yl)-phenol] | 34 |
| CNc1ccn2cc(-c3cnn(C)c3)nc2c1 [Example 129, Methyl-[2-(1-methyl-1H-pyrazol-4-yl)-imidazo[1,2-a]pyridin-7-yl]-amine] | 50 |
| CNc1ccn2cc(-c3cccc(COC)c3)nc2c1 [Example 130, 2-[3-(Methoxymethyl)phenyl]-N-methyl-imidazo[1,2-a]pyridine-7-amine HCl adduct] | 40 |
| CNc1ccn2cc(-c3ccc(NCCF)cc3)nc2c1 [Example 131, 2-(4-(2-fluoroethylamino)phenyl)-N-methylimidazo[1,2-a]pyridin-7-amine] | 43 |
| COc1ccc(-c2cn3ccc(NCCCF)cc3n2)cc1 [Example 132, N-(3-fluoropropyl)-2-(4-methoxyphenyl)imidazo[1,2-a]pyridin-7-amine] | 38 |
| CNc1ccn2cc(-c3cccc(OCF)c3)nc2c1 [Example 133, 2-(3-(fluoromethoxy)phenyl)-N-methylimidazo[1,2-a]pyridin-7-amine] | 40 |
| COc1ccc(-c2cn3ccc(NC(C)CO)cc3n2)cc1 (stereo not shown) [Example 134, 2-(2-(4-methoxyphenyl)imidazo[1,2-a]pyridin-7-ylamino)propan-1-ol] | 21 |
| COc1cc(-c2cn3ccc(NCCF)cc3n2)ccc1C [Example 135, N-(2-fluoroethyl)-2-(3-methoxy-4-methylphenyl)imidazo[1,2-a]pyridin-7-amine] | 14 |
| CNc1ccn2cc(-c3cccc(SC)c3)nc2c1 [Example 136, N-methyl-2-(3-(methylthio)phenyl)imidazo[1,2-a]pyridin-7-amine] | 20 |
| CNc1ccn2cc(-c3cccc(OCCF)c3)nc2c1 [Example 137, 2-(3-(2-fluoroethoxy)phenyl)-N-methylimidazo[1,2-a]pyridin-7-amine] | 41 |
| COc1ccc(-c2cn3ccc(N4CC4C)cc3n2)cc1 (stereo not shown) [Example 138, 2-(4-methoxyphenyl)-7-(2-methylaziridin-1-yl)imidazo[1,2-a]pyridine] | 44 |
| CNc1ccn2cc(-c3cccc(OCCCF)c3)nc2c1 [Example 139, 2-(3-(3-fluoropropoxy)phenyl)-N-methylimidazo[1,2-a]pyridin-7-amine] | 5 |
| FCCOc1cccc(-c2cn3ccc(N4CCC4)cc3n2)c1 [Example 140, 7-(azetidin-1-yl)-2-(3-(2-fluoroethoxy)phenyl)imidazo[1,2-a]pyridine] | 23 |
| CNc1ccn2cc(-c3ccc(N4CCC(F)CC4)cc3)nc2c1 [Example 141, 2-(4-(4-fluoropiperidin-1-yl)phenyl)-N-methylimidazo[1,2-a]pyridin-7-amine] | 35 |
| COc1cc(-c2cn3ccc(NCCF)cc3n2)ccc1O [Example 142, 4-(7-(2-fluoroethylamino)imidazo[1,2-a]pyridin-2-yl)-2-methoxyphenol] | 11 |
| FCCNc1ccn2cc(-c3ccc4c(c3)OCCO4)nc2c1 [Example 143, 2-(2,3-dihydrobenzo[b][1,4]dioxin-6-yl)-N-(2-fluoroethyl)imidazo[1,2-a]pyridin-7-amine] | 23 |
| FCCOCCOc1ccc(-c2cn3ccc(N4CCC4)cc3n2)cc1 [Example 144, 7-(azetidin-1-yl)-2-(4-(2-(2-fluoroethoxy)ethoxy)phenyl)imidazo[1,2-a]pyridine] | 27 |
